Laboratory results from patent publication US9452217B2, “Methods for potentiating immune response for the treatment of infectious diseases and cancer” (Nitor Therapeutics, priority 2013, dated 2016).

Columns and labels:
Format in all cases: cell-based
Conditions in all cases: one concentration: NTR001 10 uM, Inosine 100 uM; FIG. 2
human TLR5 = target: T1, human TLR5 (Homo sapiens, UniProt O60602); assay: TLR ligand screening: NF-κB activation (SEAP reporter) in HEK293 cells expressing TLR5
T1 construct: expressed in transfected cells; host or cells: HEK293
Procedure: (§1) Method: TLR stimulation is tested by assessing NF-κB activation in HEK293 cells expressing a given TLR. The Secreted Embryonic Alkaline Phosphatase (SEAP) reporter is under the control of a promoter inducible by the transcription factor NF-κB. This reporter gene allows the monitoring of signaling through the TLR, based on the activation of NF-κB. The compounds are evaluated at one concentration and compared to control ligands. This step is performed in triplicate.

human TLR9 = target: T2, human TLR9 (Homo sapiens, UniProt Q9NR96); assay: TLR ligand screening: NF-κB activation (SEAP reporter) in HEK293 cells expressing TLR9
T2 construct: expressed in transfected cells; host or cells: HEK293
T2 sequence (Q9NR96 26-1032): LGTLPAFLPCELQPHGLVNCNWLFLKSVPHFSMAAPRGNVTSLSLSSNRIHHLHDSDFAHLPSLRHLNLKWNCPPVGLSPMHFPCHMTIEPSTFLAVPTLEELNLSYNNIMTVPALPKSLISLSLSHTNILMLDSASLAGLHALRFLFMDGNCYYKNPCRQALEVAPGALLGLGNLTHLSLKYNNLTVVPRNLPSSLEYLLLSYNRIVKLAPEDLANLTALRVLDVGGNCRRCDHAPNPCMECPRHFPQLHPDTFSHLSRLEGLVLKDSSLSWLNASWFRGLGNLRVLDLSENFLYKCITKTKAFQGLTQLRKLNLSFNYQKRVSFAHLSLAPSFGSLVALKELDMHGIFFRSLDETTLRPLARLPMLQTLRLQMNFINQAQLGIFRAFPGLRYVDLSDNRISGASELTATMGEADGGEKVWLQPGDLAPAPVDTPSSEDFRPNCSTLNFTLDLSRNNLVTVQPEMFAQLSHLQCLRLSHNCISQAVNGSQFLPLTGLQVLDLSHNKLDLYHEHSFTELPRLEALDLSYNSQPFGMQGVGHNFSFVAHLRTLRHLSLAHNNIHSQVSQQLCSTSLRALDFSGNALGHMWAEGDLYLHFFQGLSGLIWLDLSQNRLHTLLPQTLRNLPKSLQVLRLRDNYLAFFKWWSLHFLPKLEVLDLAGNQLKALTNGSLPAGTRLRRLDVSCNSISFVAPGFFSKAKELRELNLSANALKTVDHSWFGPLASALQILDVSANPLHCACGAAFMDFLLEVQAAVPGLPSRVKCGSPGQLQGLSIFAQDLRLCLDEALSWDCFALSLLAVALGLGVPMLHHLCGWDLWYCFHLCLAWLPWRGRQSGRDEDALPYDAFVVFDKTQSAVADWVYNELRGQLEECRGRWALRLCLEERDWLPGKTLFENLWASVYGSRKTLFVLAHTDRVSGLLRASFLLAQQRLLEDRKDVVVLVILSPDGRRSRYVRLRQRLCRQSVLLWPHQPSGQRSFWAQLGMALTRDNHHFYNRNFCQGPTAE
Procedure: as §1

human TLR3 = target: T3, human TLR3 (Homo sapiens, UniProt O15455); assay: TLR ligand screening: NF-κB activation (SEAP reporter) in HEK293 cells expressing TLR3
T3 construct: expressed in transfected cells; host or cells: HEK293
T3 sequence (O15455 24-904): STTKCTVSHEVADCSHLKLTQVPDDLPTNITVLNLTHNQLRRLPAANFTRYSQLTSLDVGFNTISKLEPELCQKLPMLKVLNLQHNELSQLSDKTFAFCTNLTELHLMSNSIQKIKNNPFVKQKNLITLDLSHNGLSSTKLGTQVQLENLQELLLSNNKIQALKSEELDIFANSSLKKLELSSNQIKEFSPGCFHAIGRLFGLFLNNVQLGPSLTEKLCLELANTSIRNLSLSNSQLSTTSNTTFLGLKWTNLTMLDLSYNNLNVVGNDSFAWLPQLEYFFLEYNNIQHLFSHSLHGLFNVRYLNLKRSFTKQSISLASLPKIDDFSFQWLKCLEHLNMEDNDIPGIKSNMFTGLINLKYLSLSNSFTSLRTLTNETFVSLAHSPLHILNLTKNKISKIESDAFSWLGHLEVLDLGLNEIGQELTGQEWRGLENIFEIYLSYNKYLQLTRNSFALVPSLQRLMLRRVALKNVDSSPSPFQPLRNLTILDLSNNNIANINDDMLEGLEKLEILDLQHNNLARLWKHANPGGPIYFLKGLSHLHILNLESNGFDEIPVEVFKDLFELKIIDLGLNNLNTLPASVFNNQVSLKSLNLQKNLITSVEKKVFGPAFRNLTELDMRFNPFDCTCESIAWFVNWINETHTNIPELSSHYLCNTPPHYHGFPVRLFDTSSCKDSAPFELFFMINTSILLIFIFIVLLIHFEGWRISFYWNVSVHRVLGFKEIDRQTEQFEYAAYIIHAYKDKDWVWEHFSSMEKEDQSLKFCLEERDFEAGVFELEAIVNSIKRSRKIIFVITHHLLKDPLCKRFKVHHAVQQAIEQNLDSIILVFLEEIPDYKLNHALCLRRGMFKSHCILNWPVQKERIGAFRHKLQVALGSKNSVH
Procedure: as §1

T1 sequence (O60602 21-858): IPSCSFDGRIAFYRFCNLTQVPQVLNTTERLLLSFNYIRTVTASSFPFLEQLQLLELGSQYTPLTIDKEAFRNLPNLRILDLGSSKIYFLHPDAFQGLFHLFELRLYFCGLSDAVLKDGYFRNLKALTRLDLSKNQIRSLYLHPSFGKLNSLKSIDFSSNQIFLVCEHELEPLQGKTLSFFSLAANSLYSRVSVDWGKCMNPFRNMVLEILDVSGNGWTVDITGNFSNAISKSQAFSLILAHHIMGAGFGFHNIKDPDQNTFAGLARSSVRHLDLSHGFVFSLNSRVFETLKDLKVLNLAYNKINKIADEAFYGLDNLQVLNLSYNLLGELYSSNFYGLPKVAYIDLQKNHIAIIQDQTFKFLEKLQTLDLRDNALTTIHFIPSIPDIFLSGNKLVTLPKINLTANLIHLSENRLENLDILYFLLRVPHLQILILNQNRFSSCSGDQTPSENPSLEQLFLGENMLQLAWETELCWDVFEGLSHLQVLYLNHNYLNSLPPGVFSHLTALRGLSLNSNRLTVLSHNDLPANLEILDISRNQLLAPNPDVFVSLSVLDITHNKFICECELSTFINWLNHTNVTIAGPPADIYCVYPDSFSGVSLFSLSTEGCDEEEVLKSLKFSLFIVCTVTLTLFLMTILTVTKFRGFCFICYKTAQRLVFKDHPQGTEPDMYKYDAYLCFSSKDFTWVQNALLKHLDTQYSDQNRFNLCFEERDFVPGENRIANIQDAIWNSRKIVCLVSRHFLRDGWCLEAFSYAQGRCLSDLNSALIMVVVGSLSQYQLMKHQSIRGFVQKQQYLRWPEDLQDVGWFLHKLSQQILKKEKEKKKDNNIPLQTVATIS

SMILES | stimulatory effect on human TLR5 (human TLR5) | stimulatory effect on human TLR9 (human TLR9) | stimulatory effect on human TLR3 (human TLR3)
O=c1[nH]cnc2c([C@@H]3N[C@H](CO)[C@@H](O)[C@H]3O)c[nH]c12 [NTR001, 7-[(2S,3S,4R,5R)-3,4-dihydroxy-5-(hydroxymethyl)-2-pyrrolidinyl]-1,5-dihydro-4H-pyrrolo [3,2-d]pyrimidin-4-one] | do not exhibit a stimulatory effect | do not exhibit a stimulatory effect | do not exhibit a stimulatory effect
OC[C@H]1O[C@@H](n2cnc3c(O)ncnc32)[C@H](O)[C@@H]1O [Inosine] | do not exhibit a stimulatory effect | do not exhibit a stimulatory effect | do not exhibit a stimulatory effect
